Measured values: US8613905B2, “Diagnostic agent” (United Arab Emirates University, priority 2007, dated 2013)
“Also recorded” adds a separate entry of the source.

Assays:
[1] = molecular target: T1, fresh or aggregated α-synuclein (Homo sapiens, UniProt P37840); assay: ELISA: binding of biotinylated peptides to coated α-synuclein; conditions: for binding to coated fresh and aggregated α-synuclein: α-synuclein coated 20-200 pmol/well, peptides 200 pmol/well, FIG. 2; for binding to aggregated versus fresh α-synuclein: range of peptide concentrations, FIG. 3A, B; for binding to aggregated versus fresh α-synuclein / lowest binding concentration detected: α-synuclein coated at 100 pmol/well; for binding to coated aggregated α-synuclein: aggregated α-synuclein coated at 500 pmol/well, data not shown
T1 construct: made in house; host or cells: Escherichia coli
Method: Various concentrations of fresh, or aggregated α-synuclein solutions (20-200 pmol/well) were coated on a microtiter plate to dry overnight at 37° C. Aggregated α-synuclein was therefore fixed to the microtiter plate. Aggregated α-synuclein was produced either by aging, dopamine treatment or nitration as indicated on the figures. After washing with PBS containing 0.05% Tween-20 (PBST) and blocking with blocking buffer (PBS containing 2.5% gelatin and 0.05% Tween-20), the biotinylated peptides (200 pmol/well in PBS) or BSA protein (negative control) were added and incubated for 1.5 hrs at room temperature (RT).
Binding of peptides to α-synuclein was quantified using enzyme-linked avidin. Briefly, the plates were washed three times with PBST before the addition of 100 μl/well of extravidin peroxidase diluted at 1:5,000 in blocking buffer. Plates were then washed three times with PBST before the addition of TMB peroxidase substrate. Plates were left for 15 minutes at RT for colour to develop. The reaction was stopped by addition 100 μl/well of 0.5M sulphuric acid and the plates were read at 450 nm in a spectrophotometer.
The effect of peptide concentration on binding to a fixed concentration of α-synuclein was tested by coating microtiter plates as above with 100 or 200 pmol/well of α-synuclein. […] The lowest binding concentration detected for both peptides was 10 pmol/well. […] The lowest binding concentration detected for all three peptides was 10 pmol/well. The binding properties of peptides 6 & 7 to coated fresh or aged α-synuclein were also tested. The binding for peptides 6&7 was detectable when aggregated α-synuclein was coated at 500 pmol/well (data not shown).
The lowest binding concentration detected for dopamine treated α-synuclein was 1 pmol/well. Dopamine treated and nitrated α-synuclein are physiological approximations of the soluble aggregates (or adducts) present during the early stages of synucleinopathic diseases.

[2] = molecular target: T1, fresh or aggregated α-synuclein; assay: ELISA: coated peptides capturing free α-synuclein; type: binding; conditions: peptides coated 100 pmol/well; α-synuclein 0.001-200 pmol/well; FIG. 4
Method: Peptides (100 pmol/well) were coated on a microtiter plate to dry overnight at 37° C. The peptides were therefore fixed to the microtiter plate. After washing with PBS containing 0.05% Tween 20 (PBST) and blocking with blocking buffer (PBS containing 2.5% gelatin and 0.05% Tween 20), various concentrations (0.001-200 pmol/well) of fresh or aggregated α-synuclein solution (produced by aging), or BSA protein (negative control) were added and incubated for 1.5 hrs at RT.
Binding of α-synuclein to peptides was quantified using enzyme-linked antibody specific for α-synuclein. Briefly, the plates were washed three times with PBST before addition of the polyclonal rabbit α-synuclein antibody FL-140 at 1:1000 (in PBS). Plates were then washed three times with PBST before the addition of TMB peroxidase substrate. Plates were left for 15 min at RT for colour to develop. The reaction was stopped by addition 100 μl/well of 0.5M sulphuric acid and the plates were read at 450 nm in a spectrophotometer.

[3] = molecular target: T2, α-synuclein aggregates in TET-off regulated SH-SY5Y cells expressing A53T (Homo sapiens, UniProt P37840, A53T); assay: Binding to α-synuclein aggregates in cell model; type: cell-based; conditions: 5 μM for 1, 2 & 4 hrs respectively (OR5, 6, 7); FIG. 13
T2 construct: expressed in transfected cells; host or cells: inducible TET-off regulated SH-SY5Y cells (from Dr. Kostas Vekrellis)
Method: This example utilises the inducible TET-off regulated SH-SY5Y system from Dr. Kostas Vekrellis (Foundation For Biomedical Research Academy of Athens). These transfected cells have shown to produce both soluble and insoluble aggregates of α-synuclein. The binding of the OR compounds to α-synuclein aggregates was investigated in this cell model.
Cells expressing A53T were grown on coverslips in media without doxycycline and were differentiated for 7 days by adding retinoic acid at 10 μM. On day 6, cells were treated with 1 μM MG132 in media containing retinoic acid for 24 hrs. The biotinylated-OR5, 6 and 7 were added to the media at 5 μM for 1, 2 & 4 hrs respectively at 37° C.
The media for the cells was then changed with fresh media without peptides and then incubated for another 15 mins for the cells to clear up the unbound peptides to α-synuclein aggregates. The cells were fixed and then treated with 0.2% Triton X in PBS for 15 minutes at RT, and after washing with PBS the blocking buffer, 0.5% BSA, was added.
The cells were stained with anti-α-synuclein antibodies (MAb 211 or FL-140 (Santa Cruz Biotechnology)), and with Streptavidin-FITC (Sigma). α-synuclein aggregates were detected after staining with anti-mouse TRITC (Sigma) or anti-rabbit TRITC (Jackson ImmunoResearch Inc.) as appropriate.

[4] = molecular target: T3, oligomeric α-synuclein (dopamine treated α-synuclein) (Homo sapiens, UniProt P37840); assay: Dot blotting of biotinylated peptides on α-synuclein; type: binding; conditions: FIG. 11
T3 construct: made in house; host or cells: Escherichia coli
Method: The binding of the peptides to the oligomeric α-synuclein was also tested using dot blotting. Monomeric α-synuclein (fresh α-synuclein solution) and oligomeric α-synuclein (dopamine treated α-synuclein) was spotted onto a nitrocellulose membrane. After the samples had been dried at room temperature for 2 hrs, the membranes were blocked, and then anti-α-synuclein MAb 211 or biotinylated-peptides were added to the membranes and incubated for 1.5 hr at room temperature. After gentle washing the membranes were treated with Extravidin-peroxidase or anti-mouse-peroxidase as appropriate. The binding of 211 and the peptides was detected using ECL reagents (Pierce). As shown in FIG. 11 the biotinylated-peptides bind specifically to the oligomeric but not monomeric forms of α-synuclein.

[5] = molecular target: T4, aggregated α-synuclein (Homo sapiens, UniProt P37840); assay: Immunogold assay (EM) on preformed α-synuclein aggregates; type: binding; conditions: 50 μM aggregated α-synuclein on grids; FIG. 6
T4 construct: made in house; host or cells: Escherichia coli
Method: Copper grids were placed on 50 μl of 50 μM aggregated α-synuclein for 1 hour and then washed on 50 μl of PBS for 2 minutes before being placed on 50 μl blocking buffer (Vector) for 1 hour 30 minutes. Grids were washed 5 times with PBS (5 minutes each) and then soaked in either […] peptide 5 (in blocking buffer) or blocking buffer only (negative control) for 1 hour 30 minutes at room temperature. Grids were then washed 5 times with PBS (5 minutes each) and soaked in 50 μl of streptavidin-gold label (1:50) in blocking buffer for 30 minutes at room temperature. Grids were again washed 5 times with PBS (5 minutes each) and soaked in 50 μl of uranyl acetate (2% in distilled water) for 1 minute at room temperature before viewing under a transmission electron microscope.

[6] = tested on: SH-SY5Y neuroblastoma cells; assay: Uptake of peptides into living neuronal cells (confocal microscopy); type: cell-based, human; conditions: peptides at 50 μM
Method: SH-SY5Y or M17 neuroblastoma cells were grown in 15 ml medium in confluent flasks before splitting each suspension into petri dishes and allowing cells to grow on coverslips (˜5×10^3/plate) until the next day. Cells were then incubated with different peptides at 50 μM in growing media (total volume=2 ml). […] After 15 min incubation with respective peptides, the cells were washed 3 times with PBS. 2 ml of fixing solution (4% paraformaldehyde in PBS) was added to the cells which were then incubated for 30 min at room temperature. Fixing buffer was removed and 2 ml of permeabilization buffer (0.2% Triton-X-100 in PBS) was added to the cells for 30 min at room temperature and then removed. 2 ml of Blocking buffer was added, left for 1 hour at RT and then removed before addition of 1:100 FITC [Avidin labelled Fluorescein] (Vector Labs) in blocking buffer. Cells were incubated for 1 hour and then washed twice with PBS 0.05% tween. The coverslips were removed and plated with the cell bearing surface downwards on a glass slide, with the addition of a drop of mounting medium (Dako Cytomation). Cells were then visualized under the confocal microscope.

For Gd-DOTA-rrrrrrGtvvaGK(biotin)-r [OR3], the “binding to coated fresh and aggregated α-synuclein” value [1] was “more specific binding to the aggregated α-synuclein”.

With Gd-DOTA-rGvvaGK(biotin)-rrrrrr [OR2] the “binding to aggregated versus fresh α-synuclein” value [1] was “more binding to the aggregated than to the fresh α-synuclein”, the “binding to coated fresh and aggregated α-synuclein” value [1] was “high binding to both fresh and aggregated coated α-synuclein” and the “lowest binding concentration detected” value [1] was 10 pmol/well.

“Gd-DOTA-r-Sar-vva-Sar-K(biotin)-rrrrrr [OR5]” was tested, and the “capture of aggregated versus fresh α-synuclein by coated peptide” value [2] was “captured more of the aggregated than the fresh α-synuclein”, the “binding to α-synuclein aggregates formed inside cells” value [3] was “bind to α-synuclein aggregates formed inside cells” and the “binding to oligomeric versus monomeric α-synuclein (dot blot)” value [4] was “binding of biotinylated-peptide OR5 to α-synuclein oligomers”. For the same substance, the “binding to aggregated α-synuclein generated by aging, dopamine treatment or nitration” value ([1]; FIG. 5) was “highly specific binding to all forms of aggregated α-synuclein”, the “specificity for dopamine treated α-synuclein” value ([1]; FIG. 5) was “particularly high specificity” and the “lowest binding concentration detected for dopamine treated α-synuclein” value ([1]; dopamine treated α-synuclein (soluble aggregates)) was 1 pmol/well. The “binding to preformed α-synuclein aggregates (streptavidin-gold, EM)” value [5] was “bind to preformed α-synuclein aggregates; also recorded: binding”.

For “Gd-DOTA-r-Sar-vva-Sar-K(biotin)-butadiamine [OR6]”, the “binding to α-synuclein aggregates formed inside cells” value [3] was “bind to α-synuclein aggregates formed inside cells”, the “incubation after which observed in living cells” value [6] was 2 h and the “binding to coated aggregated α-synuclein” value [1] was “detectable”.

For Gd-DOTA-rGtvvaGK(biotin)-rrrrrr [OR1], the “binding to aggregated versus fresh α-synuclein” value [1] was “more binding to the aggregated than to the fresh α-synuclein”, the “binding to coated fresh and aggregated α-synuclein” value [1] was “high binding to both fresh and aggregated coated α-synuclein” and the “lowest binding concentration detected” value [1] was 10 pmol/well.

“Gd-DOTA-r-Sar-vva-Sar-K(biotin)-pentadiamine [OR7]” was tested, and the “binding to α-synuclein aggregates formed inside cells” value [3] was “bind to α-synuclein aggregates formed inside cells”, the “incubation after which observed in living cells” value [6] was 4 h and the “binding to coated aggregated α-synuclein” value [1] was “detectable”. The “binding to preformed α-synuclein aggregates (streptavidin-gold, EM)” value [5] was “bind to preformed α-synuclein aggregates; also recorded: binding”.

With Gd-DOTA-rrrrrrGvvaGK(biotin)-r [OR4] the “capture of aggregated versus fresh α-synuclein by coated peptide” value [2] was “captured more of the aggregated than the fresh α-synuclein” and the “binding to coated fresh and aggregated α-synuclein” value [1] was “more specific binding to the aggregated α-synuclein”.
